Measured values from the supplement of paper PMC13380429.

Columns and labels:
Settings in all cases: 72 h
Caco-2 [1] = assay: cell viability relative to DMSO; higher = less toxic
Calu-3 [2] = assay: as above
HepG2 [3] = assay: as above
U2OS [4] = assay: as above
Vero E6 [5] = assay: as above
Caco-2 [6] = assay: relative viability EC50 (midpoint between 100% and the lowest measured viability); higher = less toxic
Calu-3 [7] = assay: as above
HepG2 [8] = assay: as above
U2OS [9] = assay: as above
Vero E6 [10] = assay: as above
Caco-2 [11] = assay: drug sensitivity score (DSS) for viability; higher = more toxic; extreme values may be limits of the assay
Calu-3 [12] = assay: as above
HepG2 [13] = assay: as above
U2OS [14] = assay: as above
Vero E6 [15] = assay: as above

Structure (SMILES) | cell viability (Caco-2 [1]; 1 nM) | cell viability (Caco-2 [1]; 10 nM) | cell viability (Caco-2 [1]; 100 nM) | cell viability (Caco-2 [1]; 1000 nM) | cell viability (Caco-2 [1]; 10000 nM) | cell viability (Calu-3 [2]; 1 nM) | cell viability (Calu-3 [2]; 10 nM) | cell viability (Calu-3 [2]; 100 nM) | cell viability (Calu-3 [2]; 1000 nM) | cell viability (Calu-3 [2]; 10000 nM) | cell viability (HepG2 [3]; 1 nM) | cell viability (HepG2 [3]; 10 nM) | cell viability (HepG2 [3]; 100 nM) | cell viability (HepG2 [3]; 1000 nM) | cell viability (HepG2 [3]; 10000 nM) | cell viability (U2OS [4]; 1 nM) | cell viability (U2OS [4]; 10 nM) | cell viability (U2OS [4]; 100 nM) | cell viability (U2OS [4]; 1000 nM) | cell viability (U2OS [4]; 10000 nM) | cell viability (Vero E6 [5]; 1 nM) | cell viability (Vero E6 [5]; 10 nM) | cell viability (Vero E6 [5]; 100 nM) | cell viability (Vero E6 [5]; 1000 nM) | cell viability (Vero E6 [5]; 10000 nM) | relative viability EC50 (Caco-2 [6]) | relative viability EC50 (Calu-3 [7]) | relative viability EC50 (HepG2 [8]) | relative viability EC50 (U2OS [9]) | relative viability EC50 (Vero E6 [10]) | drug sensitivity score (Caco-2 [11]) | drug sensitivity score (Calu-3 [12]) | drug sensitivity score (HepG2 [13]) | drug sensitivity score (U2OS [14]) | drug sensitivity score (Vero E6 [15])
CCCNC(C)C(=O)Nc1ccccc1C (stereo not given) [prilocaine] | 95.1% | 100% | 99.1% | 102% | 97.3% | 89% | 102% | 95.5% | 94% | 101% | 113% | 91.9% | 102% | 96.2% | 98.8% | 100% | 108% | 99.3% | 105% | 96.9% | 101% | 98.9% | 92.2% | 99.8% | 96.9% | > 10 µM | > 10 µM | > 10 µM | > 10 µM | > 10 µM | 0 | 0 | 0 | 0 | 0
C[C@H](N[C@@H](CCc1ccccc1)C(=O)O)C(=O)N1Cc2ccccc2C[C@H]1C(=O)O [quinaprilat] | 102% | 98.2% | 96.8% | 100% | 92.1% | 97.5% | 97.6% | 91.3% | 97% | 93.5% | 107% | 94.9% | 98.4% | 110% | 94.9% | 94.7% | 96.1% | 98.3% | 98.1% | 106% | 91.8% | 98.9% | 91.8% | 104% | 106% | > 10 µM | > 10 µM | > 10 µM | > 10 µM | > 10 µM | 0 | 0 | 0 | 0 | 0
c1cc2c(cc1[C@H]1OC[C@H]3[C@@H]1CO[C@@H]3c1ccc3c(c1)OCO3)OCO2 [sesamin] | 93.7% | 95% | 98.4% | 95.7% | 89.2% | 109% | 103% | 102% | 98.1% | 90.1% | 105% | 107% | 102% | 91.1% | 106% | 96.9% | 100% | 102% | 104% | 99.3% | 99.8% | 103% | 94.6% | 99.3% | 99.4% | > 10 µM | > 10 µM | > 10 µM | > 10 µM | > 10 µM | 0 | 0 | 0 | 0 | 0
CCc1cc(/C(C)=N/OCc2ccc(C3CCCCC3)c(C(F)(F)F)c2)ccc1CN1CC(C(=O)O)C1 [siponimod] | 93.6% | 107% | 91.3% | 97.6% | 81.3% | 116% | 99.7% | 98.8% | 96.6% | 97.6% | 104% | 89.8% | 91.3% | 110% | 97.4% | 101% | 99.5% | 96.6% | 101% | 98.7% | 102% | 101% | 98.6% | 96.6% | 96.4% | > 10 µM | > 10 µM | > 10 µM | > 10 µM | > 10 µM | 0.8 | 0 | 0 | 0 | 0
COc1nccnc1NS(=O)(=O)c1ccc(N)cc1 [sulfametopyrazine] | 99.7% | 87.3% | 101% | 89.7% | 102% | 98.5% | 97% | 98.1% | 101% | 102% | 97.6% | 99.7% | 103% | 91.9% | 99.4% | 102% | 95.4% | 104% | 96.8% | 98.9% | 102% | 107% | 95.2% | 100% | 97.5% | > 10 µM | > 10 µM | > 10 µM | > 10 µM | > 10 µM | 0 | 0 | 0 | 0 | 0
CNC(=O)c1cc(COc2nnc(Nc3ccc(Cl)cc3)c3ccoc23)ccn1 [telatinib] | 96.6% | 95.4% | 99.3% | 97.2% | 98.8% | 106% | 106% | 98.8% | 96.6% | 104% | 85.9% | 106% | 97.7% | 101% | 114% | 101% | 97.6% | 101% | 98% | 92.4% | 92.7% | 95.5% | 92.1% | 93.3% | 102% | > 10 µM | > 10 µM | > 10 µM | > 10 µM | > 10 µM | 0 | 0 | 0 | 0 | 0
C/N=C(/NC#N)NCCSCc1csc(NC(=N)N)n1 [tiotidine] | 102% | 94.4% | 104% | 104% | 110% | 99.5% | 97.2% | 91.7% | 101% | 104% | 96.4% | 105% | 98.3% | 108% | 113% | 105% | 96% | 97.9% | 98.6% | 106% | 91.5% | 96.6% | 96.6% | 92.8% | 108% | > 10 µM | > 10 µM | > 10 µM | > 10 µM | > 10 µM | 0 | 0 | 0 | 0 | 0
CCC(=O)N1CCN(c2ccc(-n3c(=O)ccc4cnc5ccc(-c6cnc7ccccc7c6)cc5c43)cc2C(F)(F)F)CC1 [torin-1] | 97.5% | 101% | 89.6% | 49.4% | 31.1% | 108% | 98.7% | 86.4% | 33.7% | 32.4% | 101% | 97.9% | 95% | 53.8% | 26.3% | 100% | 103% | 91.8% | 42.2% | 19% | 93.4% | 94.4% | 88.2% | 57.9% | 39.4% | 0.426 µM | 0.183 µM | 0.684 µM | 0.512 µM | 0.404 µM | 10.7 | 14.4 | 9.8 | 12 | 9.3
Nc1ccc(-c2ccc3ncc4ccc(=O)n(-c5cccc(C(F)(F)F)c5)c4c3c2)cn1 [torin-2] | 89.4% | 69.1% | 32.7% | 21.7% | 17.8% | 86.3% | 62.6% | 30.2% | 22.2% | 18.5% | 91.2% | 81.6% | 41.2% | 16.3% | 3.4% | 92.5% | 90.8% | 26.6% | 11% | 0.5% | 94.6% | 77.1% | 48.6% | 36% | 11.5% | 0.0169 µM | 0.0111 µM | 0.0594 µM | 0.0481 µM | 0.0738 µM | 26.6 | 28.1 | 24.5 | 27.3 | 21
NCCCS(=O)(=O)O [tramiprosate] | 86.1% | 94.8% | 97.7% | 98.1% | 93% | 98.5% | 95.1% | 95% | 96.8% | 98.7% | 108% | 97.4% | 106% | 108% | 109% | 94.6% | 99.2% | 101% | 103% | 94.7% | 95.2% | 95.8% | 100% | 99.7% | 106% | > 10 µM | > 10 µM | > 10 µM | > 10 µM | > 10 µM | 0 | 0 | 0 | 0 | 0
OCC(Br)(Br)Br [tribromoethanol] | 81.4% | 116% | 92.7% | 98.8% | 107% | 91.4% | 95.9% | 98.3% | 106% | 94.2% | 99.3% | 102% | 102% | 97% | 85.4% | 95.3% | 98.3% | 96.7% | 98.8% | 101% | 106% | 96.3% | 108% | 87.7% | 99.9% | > 10 µM | > 10 µM | > 10 µM | > 10 µM | > 10 µM | 0 | 0 | 0.5 | 0 | 0
CC[N+](CC)(CC)CCC(O)(c1ccccc1)C1CCCCC1 (stereo not given) [tridihexethyl] | 100% | 92.8% | 102% | 92.7% | 110% | 104% | 104% | 96.9% | 103% | 106% | 99.8% | 108% | 92.5% | 89% | 112% | 101% | 94.5% | 97.1% | 106% | 103% | 96.4% | 93.6% | 97.2% | 97.6% | 103% | > 10 µM | > 10 µM | > 10 µM | > 10 µM | > 10 µM | 0 | 0 | 0 | 0 | 0
c1cnc2cc3c(cc2n1)[C@@H]1CNC[C@H]3C1 [varenicline] | 95.4% | 91.9% | 103% | 93.1% | 93.7% | 105% | 99.1% | 108% | 98.1% | 105% | 97.2% | 88.7% | 90.4% | 95.4% | 101% | 97.5% | 93.5% | 103% | 96.3% | 104% | 91% | 99.8% | 91.4% | 98.7% | 104% | > 10 µM | > 10 µM | > 10 µM | > 10 µM | > 10 µM | 0 | 0 | 0 | 0 | 0
COc1ccc(C(CN(C)C)C2(O)CCCCC2)cc1 (stereo not given) [venlafaxine] | 110% | 87.5% | 125% | 127% | 82% | 104% | 99.9% | 95.6% | 99.9% | 107% | 108% | 112% | 95.8% | 93.2% | 107% | 97.1% | 91.5% | 102% | 97.4% | 102% | 99.2% | 100% | 84.1% | 92.9% | 101% | > 10 µM | > 10 µM | > 10 µM | > 10 µM | > 10 µM | 0.2 | 0 | 0 | 0 | 0
C=CC(N)CCC(=O)O (stereo not given) [vigabatrin] | 93.7% | 96.1% | 101% | 98.1% | 93.2% | 103% | 105% | 99% | 102% | 106% | 100% | 89.6% | 113% | 96.1% | 104% | 95.9% | 103% | 96.8% | 99.4% | 91.7% | 96.5% | 93.8% | 101% | 88.4% | 97.1% | > 10 µM | > 10 µM | > 10 µM | > 10 µM | > 10 µM | 0 | 0 | 0 | 0 | 0
